The values that follow come from patent publication US8455547B2, “Substituted cyclopentanes having prostaglandin activity” (Allergan, Inc., priority 2008, dated 2013).

The EC50 is the concentration that produces a half-maximal response. Low values mean higher potency in that assay, high ones lower potency in that assay.

For experiment [1], the target named is T1, EP4 (Homo sapiens, UniProt P35408). The experiment is described as follows: EP4 binding assay. The source says: (§1) U.S. patent application Ser. No. 11/553,143, filed on Oct. 26, 2006, incorporated by reference herein, describes the methods used to obtain the in vitro data in Tables 1 and 2 below.
T1 sequence (P35408 whole entry): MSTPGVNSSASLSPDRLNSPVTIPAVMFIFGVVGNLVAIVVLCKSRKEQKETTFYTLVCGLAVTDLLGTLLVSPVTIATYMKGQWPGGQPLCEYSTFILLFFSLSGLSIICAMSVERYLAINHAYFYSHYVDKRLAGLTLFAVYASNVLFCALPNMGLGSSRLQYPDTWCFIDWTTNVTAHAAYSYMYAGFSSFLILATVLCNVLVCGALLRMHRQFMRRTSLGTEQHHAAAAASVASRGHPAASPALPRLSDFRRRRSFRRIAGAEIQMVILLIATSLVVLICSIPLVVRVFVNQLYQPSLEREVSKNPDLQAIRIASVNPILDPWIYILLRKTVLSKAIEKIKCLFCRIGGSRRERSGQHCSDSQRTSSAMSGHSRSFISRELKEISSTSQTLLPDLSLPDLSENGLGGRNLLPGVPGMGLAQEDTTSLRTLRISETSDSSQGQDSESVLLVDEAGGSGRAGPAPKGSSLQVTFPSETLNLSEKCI
For experiment [2], the target named is T2, EP2 (Homo sapiens, UniProt P43116). The experiment is described as follows: EP2 binding assay.
T2 sequence (P43116 whole entry): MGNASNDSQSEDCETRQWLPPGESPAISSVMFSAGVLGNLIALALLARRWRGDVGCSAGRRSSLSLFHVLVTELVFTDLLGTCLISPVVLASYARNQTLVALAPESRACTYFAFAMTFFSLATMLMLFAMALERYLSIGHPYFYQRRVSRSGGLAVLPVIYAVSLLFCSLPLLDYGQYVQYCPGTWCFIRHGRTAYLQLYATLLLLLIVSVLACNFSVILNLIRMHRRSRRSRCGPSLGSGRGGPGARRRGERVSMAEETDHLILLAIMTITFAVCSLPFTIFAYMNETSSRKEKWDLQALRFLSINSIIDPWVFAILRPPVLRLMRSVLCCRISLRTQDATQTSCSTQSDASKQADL
Source text: as §1

For experiment [3], the target named is T2, EP2. The experiment is described as follows: EP2 Ca2+ signal assay. Type of experiment: cell-based. The settings on record: for EP2 Ca2+ signal % PGE2: relative to PGE2.
Source text: as §1

In experiment [4] the target is T2, EP2. The experiment is described as follows: EP2 cAMP assay. Type of experiment: cell-based.
Source text: as §1
(Changes in cAMP serve as a functional read-out for many G protein-coupled receptors.)

The target in the next experiment is T3, EP1 (Homo sapiens, UniProt P34995).
T3 sequence (P34995 1-402): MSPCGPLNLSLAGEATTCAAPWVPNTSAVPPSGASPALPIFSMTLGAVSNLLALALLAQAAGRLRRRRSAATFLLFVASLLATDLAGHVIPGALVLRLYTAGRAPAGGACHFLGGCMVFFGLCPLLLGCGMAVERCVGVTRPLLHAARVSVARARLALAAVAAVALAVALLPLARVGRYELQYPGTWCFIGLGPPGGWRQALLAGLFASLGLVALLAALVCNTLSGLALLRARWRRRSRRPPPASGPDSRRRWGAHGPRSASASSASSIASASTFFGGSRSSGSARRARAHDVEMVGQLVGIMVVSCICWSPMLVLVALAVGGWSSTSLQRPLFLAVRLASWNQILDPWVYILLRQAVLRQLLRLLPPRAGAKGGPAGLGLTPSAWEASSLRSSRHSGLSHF
The experiment is described as follows: EP1 functional assay. Type of experiment: cell-based.
Source text: as §1

A further experiment addresses T4, TP (Homo sapiens, UniProt P21731).
T4 sequence (P21731 1-343): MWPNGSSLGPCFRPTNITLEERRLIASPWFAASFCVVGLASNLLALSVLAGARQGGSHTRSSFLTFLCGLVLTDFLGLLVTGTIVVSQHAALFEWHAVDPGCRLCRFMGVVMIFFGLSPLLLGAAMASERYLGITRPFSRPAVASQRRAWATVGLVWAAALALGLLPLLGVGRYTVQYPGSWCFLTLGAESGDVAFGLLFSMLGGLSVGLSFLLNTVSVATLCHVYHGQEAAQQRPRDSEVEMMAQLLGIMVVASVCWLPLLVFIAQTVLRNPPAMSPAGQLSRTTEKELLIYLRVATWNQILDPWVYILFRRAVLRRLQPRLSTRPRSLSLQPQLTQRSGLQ
The experiment is described as follows: TP functional assay. Type of experiment: cell-based.
Source text: as §1

The target of experiment [5] is T1, EP4. The experiment is described as follows: EP4 Ca2+ signal assay. Type of experiment: cell-based. The settings on record: for EP4 Ca2+ signal % PGE2: relative to PGE2.
Source text: as §1

Another experiment has as its target T5, EP3 (Homo sapiens, UniProt P43115).
T5 sequence (P43115 1-390): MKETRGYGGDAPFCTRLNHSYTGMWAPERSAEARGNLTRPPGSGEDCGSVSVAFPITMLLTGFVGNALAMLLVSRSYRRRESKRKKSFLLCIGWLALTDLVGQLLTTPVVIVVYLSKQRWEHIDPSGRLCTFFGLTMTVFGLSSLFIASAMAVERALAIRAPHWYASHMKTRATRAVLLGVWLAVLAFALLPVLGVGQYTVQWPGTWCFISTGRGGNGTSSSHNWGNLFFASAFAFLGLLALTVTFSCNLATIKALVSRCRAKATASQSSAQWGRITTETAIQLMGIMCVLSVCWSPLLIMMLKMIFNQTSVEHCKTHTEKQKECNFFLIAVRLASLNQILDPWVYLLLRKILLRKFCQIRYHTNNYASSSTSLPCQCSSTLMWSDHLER
The experiment is described as follows: EP3 functional assay. Type of experiment: cell-based.
Source text: as §1

With `C[C@@H](O)CCC[C@H](O)/C=C/[C@@H]1[C@@H](C/C=C\CCCC(=O)O)[C@H](Cl)C[C@H]1O`, the EC50 is 885 nM on EP4 [1]; 25 nM on EP2 [2]; 4 nM on EP2 [3]; 0.03 nM at EP2 [4]; 13 nM on EP1; 178 nM at TP. Moreover, the figures for the EC50 at EP4 [5] and on EP3 were 46 nM and 6 nM, respectively. Also, the “EP4 Binding % Inh” value on EP4 [1] came to 81%. The “EP2 Binding % Inh” value on EP2 [2] amounted to 99%. The “EP2 Ca2+ signal % PGE2” value on EP2 [3] is recorded as 107%. At EP4 [5], the “EP4 Ca2+ signal % PGE2” value came to 107%.

`C[C@@H](O)CCC[C@H](O)/C=C/[C@@H]1[C@@H](CCCCCCC(=O)O)[C@H](Cl)C[C@H]1O`: at EP4 [1], the “EP4 Binding % Inh” value stood at 29%. At EP2 [2], it took 1220 nM to reach a half-maximal effect (EC50) and the “EP2 Binding % Inh” value was determined as 78%. For the same molecule, at EP2 [3], the midpoint of the response, the EC50, lay at 109 nM and the “EP2 Ca2+ signal % PGE2” value is reported as 100%. Besides, it took 1.47 nM to reach a half-maximal effect on EP2 [4] (EC50). On EP4 [5], the EC50 was 727 nM and the “EP4 Ca2+ signal % PGE2” value stood at 99%.
